In ChEMBL document CHEMBL1759949, “In vitro cytotoxicity of melleolide antibiotics: structural and mechanistic aspects” (Bioorg Med Chem Lett, 2011) one finds Activity, IC50 and inhibition data, which are given here for 14 molecules.

The subject of assay [1] is Jurkat. Briefly: Cytotoxicity against human Jurkat cells at <=100 uM. It counts as functional, cell-based.
Assay [2] deals with MCF7. Description: Cytotoxicity against human MCF7 cells at <=100 uM. Type of assay: functional, cell-based.
In assay [3] the test system is HeLa. Briefly: Cytotoxicity against human HeLa cells at <=100 uM. It counts as functional, cell-based.
Assay [4] has as its system K562. Briefly: Cytotoxicity against human K562 cells at <=100 uM. It counts as functional, cell-based.
Assay [5] relates to K562. Description: Cytotoxicity against human K562 cells. Type of assay: functional, cell-based.
For assay [6], the system named is HeLa. Description: Cytotoxicity against human HeLa cells. Type of assay: functional, cell-based.
In assay [7] the test system is Jurkat. Description: Cytotoxicity against human Jurkat cells. It counts as functional, cell-based.
Assay [8] has as its system MCF7. Briefly: Cytotoxicity against human MCF7 cells. Type of assay: functional, cell-based.
Assay [9] relates to K562. Description: Inhibition of transcription in human K562 cells at 3.5 uM after 120 mins. It counts as functional. More on the design: scale not given: the % may be the effect or the level left.
For assay [10], the system named is K562. Briefly: Inhibition of protein synthesis in human K562 cells assessed as [14C]L-leucine incorporation at 3.5 uM after 120 mins. It counts as functional. Further details: scale not given: the % may be the effect or the level left.
Assay [11] relates to K562. Briefly: Inhibition of transcription in human K562 cells at 0.47 uM after 120 mins. It counts as functional. More on the design: scale not given: the % may be the effect or the level left.
Assay [12] relates to K562. Briefly: Inhibition of protein synthesis in human K562 cells assessed as [14C]L-leucine incorporation at 0.47 uM after 120 mins. Further details: scale not given: the % may be the effect or the level left. It counts as functional.
For assay [13], the system named is K562. Description: Inhibition of DNA synthesis in human K562 cells assessed as [14C]thymidine incorporation at 0.47 uM after 120 mins. Type of assay: functional. Further details: scale not given: the % may be the effect or the level left. (In general: Incorporation of labelled thymidine or its analogues reports DNA synthesis.)
The test system of assay [14] is K562. Briefly: Inhibition of DNA synthesis in human K562 cells assessed as [14C]thymidine incorporation at 4 uM after 120 mins. It counts as functional. Further details: scale not given: the % may be the effect or the level left.
Assay [15] deals with K562. Briefly: Inhibition of transcription in human K562 cells at 4 uM after 120 mins. Type of assay: functional. Further details: scale not given: the % may be the effect or the level left.
The test system of assay [16] is K562. Briefly: Inhibition of DNA synthesis in human K562 cells assessed as [14C]thymidine incorporation at 1.25 uM after 60 mins. It counts as functional. More on the design: scale not given: the % may be the effect or the level left.
In assay [17] the test system is K562. Description: Inhibition of DNA synthesis in human K562 cells assessed as [14C]thymidine incorporation at 1.25 uM after 120 mins. Type of assay: functional. Further details: scale not given: the % may be the effect or the level left.
For assay [18], the system named is K562. Description: Inhibition of protein synthesis in human K562 cells assessed as [14C]L-leucine incorporation at 5 uM after 120 mins. Type of assay: functional. Further details: scale not given: the % may be the effect or the level left.
The test system of assay [19] is K562. Briefly: Inhibition of DNA synthesis in human K562 cells assessed as [14C]thymidine incorporation at 5 uM after 60 mins. It counts as functional. Further details: scale not given: the % may be the effect or the level left.
Assay [20] has as its system K562. Description: Inhibition of protein synthesis in human K562 cells assessed as [14C]L-leucine incorporation at 1.25 uM after 120 mins. It counts as functional. Further details: scale not given: the % may be the effect or the level left.
Assay [21] concerns K562. Briefly: Inhibition of DNA synthesis in human K562 cells assessed as [14C]thymidine incorporation at 5 uM after 120 mins. It counts as functional. Further details: scale not given: the % may be the effect or the level left.
In assay [22] the test system is K562. Description: Inhibition of protein synthesis in human K562 cells assessed as inhibition of [14C]L-leucine incorporation at 1.25 uM after 60 mins. Type of assay: functional, cell-based.
The subject of assay [23] is K562. Briefly: Inhibition of cellular respiration in human K562 cells at 1.25 to 5 uM. Type of assay: functional, cell-based.
The subject of assay [24] is K562. Briefly: Inhibition of protein synthesis in human K562 cells assessed as [14C]L-leucine incorporation at 5 uM after 60 mins. Type of assay: functional. Further details: scale not given: the % may be the effect or the level left.
The test system of assay [25] is K562. Briefly: Inhibition of RNA synthesis in human K562 cells assessed as inhibition of [14C]uridine incorporation upto 5 uM after 120 mins. It counts as functional, cell-based.

The term IC50 denotes the concentration needed to halve the response being measured.

The structures appear in SMILES notation. Activity calls are given as the source filed them. The calls are words filed in the database; no cut-off is given here. Starred links: 1 amine or outer side, 2 acyl side, 3 side chain; linkers in the order of their positions; H or OH if unused. Positions of bridges follow the written chain, without caps; N, C: chain ends. Non-standard residues stand in square brackets, D forms with d. Residues, ends and D or L forms follow the SMILES beside them. Chains are numbered I, II in the order given. Actinocin(1to9) = Cc1c2oc3c(C)ccc(C(=O)[*:2])c3nc-2c(C(=O)[*:1])c(N)c1=O; NMeV = CN[C@H](C(=O)O)C(C)C; Sar = CNCC(=O)O Some results are limits rather than exact numbers.

As to `COc1cc(O)c(C(=O)O[C@@H]2C[C@]3(C)[C@H]4CC(C)(CO)C[C@@]4(O)C=C(CO)[C@]23O)c(C)c1Cl` (stereo not given in full), the Activity entry with Jurkat [1], with MCF7 [2], with HeLa [3] and in the assay on K562 [4] was “Not toxic” each time.

As to `Cc1c(Cl)c(O)cc(O)c1C(=O)O[C@@H]1C[C@]2(C)[C@H]3CC(C)(C)C[C@@]3(O)C=C(CO)[C@]12O`, the IC50 in the assay on K562 [5] was more than 100 µM; in the assay on HeLa [6], more than 100 µM; with Jurkat [7], 46.6 µM; in the assay on MCF7 [8] it was more than 100 µM.

In the case of `COc1cc(O)c(C(=O)O[C@@H]2C[C@]3(C)[C@H]4CC(C)(C)C[C@H]4C=C(C=O)[C@]23O)c(C)c1Cl` [ARMILLARIDIN], the IC50 is 8.9 µM in the assay on K562 [5], 9.2 µM in the assay on HeLa [6], 3 µM in the assay with Jurkat [7] and 7.8 µM in the assay with MCF7 [8].

Take `COc1cc(O)c(C(=O)O[C@@H]2C[C@]3(C)[C@H]4CC(C)(C)C[C@H]4[C@H](O)[C@@H](CO)[C@]23O)c(C)c1Cl`: the IC50 was determined as 25 µM in the assay with K562 [5], 35.8 µM with HeLa [6], 13.3 µM in the assay with Jurkat [7] and 26.5 µM with MCF7 [8].

On to `C[C@@H]1C[C@@H]([C@H](O)CC2CC(=O)NC(=O)C2)C(=O)[C@@H](C)C1` [CYCLOHEXIMIDE], for which the Activity in the assay with K562 [9] is recorded as 99%; in the assay on K562 [10] it was 26%.

For the molecule `COc1cccc2c1C(=O)c1c(O)c3c(c(O)c1C2=O)C[C@@](O)(C(=O)CO)C[C@@H]3O[C@H]1C[C@H](N)[C@H](O)[C@H](C)O1` [DOXORUBICIN], the results for the Activity with K562 [11], with K562 [12] and in the assay with K562 [13] were 79%, 89% and 46%, respectively.

As for `COc1cc(C)c(C(=O)O[C@@H]2C[C@]3(C)[C@H]4CC(C)(C)C[C@H]4C=C(C=O)[C@]23O)c(O)c1` [ARMILLARIN], the IC50 in the assay on K562 [5] is 9.9 µM; with HeLa [6], 16.7 µM; in the assay on MCF7 [8], 11.6 µM.

On to `Cc1c2oc3c(C)ccc(C(=O)N[C@@H]4C(=O)N[C@H](C(C)C)C(=O)N5CCC[C@H]5C(=O)N(C)CC(=O)N(C)[C@@H](C(C)C)C(=O)O[C@@H]4C)c3nc-2c(C(=O)N[C@@H]2C(=O)N[C@H](C(C)C)C(=O)N3CCC[C@H]3C(=O)N(C)CC(=O)N(C)[C@@H](C(C)C)C(=O)O[C@@H]2C)c(N)c1=O` [DACTINOMYCIN] (I: T[dV]P[Sar][NMeV] / II: T[dV]P[Sar][NMeV]; ester I:1-I:C, II:1-II:C; linker I:N-II:N via Actinocin(1to9)), for which the Activity is given as 58% in the assay on K562 [14] and 2% with K562 [15].

For the molecule `COc1cc(O)c(C(=O)O[C@@H]2C[C@]3(C)[C@H]4[C@@H](O)C(C)(C)C[C@@]4(O)C=C(CO)[C@]23O)c(C)c1Cl`, the Activity result in the assay on Jurkat [1], in the assay with MCF7 [2], in the assay with HeLa [3] and in the assay with K562 [4] was “Not toxic” throughout.

As for `Cc1cc(O)cc(O)c1C(=O)O[C@@H]1C[C@@]2(C)C1=C(C=O)[C@@H](O)[C@@H]1CC(C)(C)C[C@@H]12` [DEHYDROARMILLYLORSELLINATE], the IC50 in the assay on K562 [5] was found to be 5 µM; in the assay with HeLa [6] it was 15.2 µM; in the assay with Jurkat [7], 16.9 µM; in the assay on MCF7 [8], 8 µM. In addition, the Activity in the assay with K562 [16] is given as 90%; in the assay on K562 [17], 71%; with K562 [18], 35%; with K562 [19] it was 70%; in the assay with K562 [20], 96%; in the assay with K562 [21] it was 35%. For the same molecule, the Activity with K562 [24] worked out at 76%. For the same molecule, the inhibition result in the assay with K562 [22], in the assay on K562 [23] and in the assay on K562 [25] was “inactive” in each case.

For the molecule `COc1cc(O)c(C(=O)OCC2=C[C@]3(O)CC(C)(C)[C@H](O)[C@@H]3[C@@]3(C)C[C@@H](O)[C@@]23O)c(C)c1Cl`, the Activity result in the assay on Jurkat [1], in the assay with MCF7 [2], in the assay with HeLa [3] and in the assay on K562 [4] was “Not toxic” throughout.

With `COc1cc(O)c(C(=O)O[C@@H]2C[C@]3(C)[C@H]4CC(C)(C)C[C@H]4C=C(CO)[C@]23O)c(C)c1Cl`, the IC50 in the assay on K562 [5] was determined as 38.9 µM; in the assay on HeLa [6] it was 40 µM; with Jurkat [7] it was 10.4 µM; in the assay on MCF7 [8], 21.3 µM.

For `COc1cc(O)c(C(=O)O[C@@H]2C[C@]3(C)[C@H]4CC(C)(C)C[C@H]4C=C(C=O)[C@]23OC)c(C)c1Cl`, the IC50 stood at 20.6 µM in the assay with K562 [5], 18.8 µM in the assay on HeLa [6], 4.1 µM with Jurkat [7] and 6.7 µM with MCF7 [8].

Regarding `Cc1cc(O)cc(O)c1C(=O)O[C@@H]1C[C@]2(C)[C@H]3CC(C)(C)C[C@@]3(O)C=C(CO)[C@]12O`, the Activity result with Jurkat [1], in the assay with MCF7 [2], in the assay with HeLa [3] and in the assay on K562 [4] was “Not toxic” each time.
